Source: patent publication US20220000798A1, “TRANS-RESVERATROL TOPICAL MEDICATION FOR THE TREATMENT OF PAIN AND METHOD OF MANUFACTURE THEREOF” (Ted's Brain Science, Inc., priority 2017, published 2022)

Tests used:
AMPK = AMPK activation by resveratrol isomers; assay type: biochemical; conditions: isomer of resveratrol
Source text: It is thus realized herein that including cis-resveratrol in a topical medication would be particularly disadvantageous, because it would contribute to the grainy or greasy feeling of the medication without contributing to its AMPK-activating efficacy.

[1] = storage stability of trans-resveratrol powder; assay type: physicochemical; conditions: well-sealed containers kept away from light
Protocol: In one embodiment, trans-resveratrol is prepared in the form of off-white to cream-colored powder with >99% purity as determined by high-performance liquid chromatography (HPLC) methodology. The resulting powder has a melting point of 260-264° C.

pain = conditions: animal model (rodents); administration by injection; cited from earlier work

stability over time [1] | Structure (SMILES) | AMPK activation (AMPK) | efficacy in mitigation of pain (pain)
 | Oc1ccc(/C=C\c2cc(O)cc(O)c2)cc1 [Cis-resveratrol] | appears not to activate AMPK to any meaningful degree or extent | 
over two years | Oc1ccc(/C=C/c2cc(O)cc(O)c2)cc1 [trans-resveratrol, 3,4′,5-trihydroxystilbene] | activates AMPK | 
 | Oc1ccc(C=Cc2cc(O)cc(O)c2)cc1 [resveratrol] |  | has shown efficacy in mitigation of pain
